Tests used:
Format in all cases: physicochemical
[1] = Boiling point, ASTM D1120, ASTM D6352
Experimental: (§1) Specifications of Product. Key specifications of RKBA-14, RKBA17, RKBA-22 and RKBA28/33 products were determined by various ASTM methods.

[2] = I2 number, USP-NF-2022, issue 1
Experimental: as §1

Density, ASTM D1209 = assay: Density, ASTM D1209
Experimental: as §1

Flash point, ASTM D93 = assay: Flash point, ASTM D93
Experimental: as §1

Viscosity, ASTM D445 = assay: Viscosity, ASTM D445
Experimental: as §1

RI of upcycled oils = assay: RI of upcycled oils
Experimental: as §1

[3] = Freezing point, ASTM S2386
Experimental: as §1

Pour point, ASTM D6749 = conditions: neat oil
Experimental: as §1

Boiling point [1] [°C] | 12 number [2] [g/ g/100 g] | Density (Density, ASTM D1209; at 60º F) [g/mL] | Flash point (Flash point, ASTM D93) [° ° C.] | Viscosity at 40° C. (Viscosity, ASTM D445) [cSt] | RI (RI of upcycled oils) | Freezing point [3] [°C] | Density (Density, ASTM D1209; at 25° C.) [g/mL] | Viscosity at 20° C. (Viscosity, ASTM D445; 20° C.) [cSt] | Viscosity at 100° C. (Viscosity, ASTM D445; 100° C.) [cSt] | Pour Point (Pour point, ASTM D6749) [°C] | Compound
288 ± 12 | <0.3 | 0.7895 | 121 ± 13 | 3.42 | 1.4 | – | – | – | – | – | CCCCCCC(CCCCC)CCCCC [RKBA-17]
319 ± 5 | – | – | 153 ± 8 | 6.31 | – | −10.5 ± −4 | 0.8049 | 11.35 | 1.96 | −21 | CCCCCCCCCCCC(CCCCC)CCCCC [RKBA-22]

From patent US20260191749A1, “COMPOSITION AND PROCESS OF MAKING BIO-BASED UPCYCLED OILS IN FLOW REACTORS” (RiKarbon, Inc., priority 2022, published 2026)
